The source of these data is patent US7803815B2, “Indol-3-yl-corbonyl-piperidin-benzoimidazol derivatives” (Hoffmann-La Roche Inc., priority 2005, dated 2010).

The target of the experiment is T1, human V1a receptor (Homo sapiens, UniProt P37288).
T1 construct: expressed in transfected cells; host or cells: HEK293 cells, transiently transfected; membrane preparation
The experiment is described as follows: human V1a receptor binding, 3H-Vasopressin SPA on membranes of transfected HEK293 cells. Particulars: displacement of 4 nM 3H-Vasopressin; HEK293 cell membranes; 1 h at room temperature; Ki from IC50 by the Cheng-Prussoff equation. The protocol: The human V1a receptor was cloned by RT-PCR from total human liver RNA. The coding sequence was subcloned in an expression vector after sequencing to confirm the identity of the amplified sequence. […] Cell membranes were prepared from HEK293 cells transiently transfected with the expression vector and grown in 20 liter fermenters with the following protocol.
50 g of cells are resuspended in 30 ml freshly prepared ice cold Lysis buffer (50 mM HEPES, 1 mM EDTA, 10 mM MgCl2 adjusted to pH=7.4+ complete cocktail of protease inhibitor (Roche Diagnostics)). Homogenized with Polytron for 1 min and sonicated on ice for 2×2 minutes at 80% intensity (Vibracell sonicator). The preparation is centrifuged 20 min at 500 g at 4° C., the pellet is discarded, and the supernatant centrifuged 1 hour at 43,000 g at 4° C. (19,000 rpm). The pellet is resuspended in 12.5 ml Lysis buffer+12.5 ml Sucrose 20% and homogenized using a Polytron for 1-2 min. The protein concentration is determined by the Bradford method, and aliquots are stored at −80° C. until use. For binding studies 60 mg Yttrium silicate SPA beads (Amersham) are mixed with an aliquot of membrane in binding buffer (50 mM Tris, 120 mM NaCl, 5 mM, KCl, 2 mM CaCl2, 10 mM MgCl2) for 15 minutes with mixing. 50 ul of bead/membrane mixture is then added to each well of a 96 well plate, followed by 50 ul of 4 nM 3H-Vasopressin (American Radiolabeled Chemicals). For total binding measurement, 100 ul of binding buffer are added to the respective wells, for non-specific binding 100 ul of […] cold vasopressin and for compound testing 100 ul of a serial dilution of each compound in 2% DMSO. The plate is incubated 1 h at room temperature, centrifuged 1 min at 1000 g and counted on a Packard Top-Count. Non-specific binding counts are subtracted from each well, and data is normalized to the maximum specific binding set at 100%. To calculate an IC 50, the curve is fitted using a non-linear regression model (XLfit), and the Ki is calculated using the Cheng-Prussoff equation.

T1 sequence (P37288 whole entry): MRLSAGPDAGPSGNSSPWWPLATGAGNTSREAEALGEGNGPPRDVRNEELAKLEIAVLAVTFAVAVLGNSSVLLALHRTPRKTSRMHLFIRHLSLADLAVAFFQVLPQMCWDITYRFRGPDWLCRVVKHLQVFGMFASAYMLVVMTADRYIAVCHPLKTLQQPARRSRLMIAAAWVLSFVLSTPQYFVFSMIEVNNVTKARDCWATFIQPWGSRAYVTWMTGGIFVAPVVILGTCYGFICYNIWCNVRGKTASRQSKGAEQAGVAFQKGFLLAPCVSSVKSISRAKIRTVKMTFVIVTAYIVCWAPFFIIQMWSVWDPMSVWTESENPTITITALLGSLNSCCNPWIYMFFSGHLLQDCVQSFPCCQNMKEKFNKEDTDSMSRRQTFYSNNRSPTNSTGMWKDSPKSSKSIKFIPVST

For orientation: Ki means a measure of affinity in units of concentration, obtained from inhibition or displacement. A lower Ki goes with a stronger hold on the target. `O=C(c1cn(C(=O)c2cc(F)cc(F)c2)c2cc(Cl)ccc12)N1CCC(n2c(=O)[nH]c3ccccc32)CC1` [Example 37, 1-{1-[6-Chloro-1-(3,5-difluoro-benzoyl)-1H-indole-3-carbonyl]-piperidin-4-yl}-1,3-dihydro-benzoimidazol-2-one] yielded a Ki of 15 nM.

Compound `O=C(Cn1cc(C(=O)N2CCC(n3c(=O)[nH]c4ccccc43)CC2)c2ccc(Cl)cc21)c1ccccc1F` [Example 38, 1-(1-{6-Chloro-1-[2-(2-fluoro-phenyl)-2-oxo-ethyl]-1H-indole-3-carbonyl}-piperidin-4-yl)-1,3-dihydro-benzoimidazol-2-one] displayed a Ki of 2 nM.

Regarding `O=C(Cn1cc(C(=O)N2CCC(n3c(=O)[nH]c4ccccc43)CC2)c2ccc(Cl)cc21)c1ccc(F)c(F)c1` [Example 39, 1-(1-{6-Chloro-1-[2-(3,4-difluoro-phenyl)-2-oxo-ethyl]-1H-indole-3-carbonyl}-piperidin-4-yl)-1,3-dihydro-benzoimidazol-2-one], the affinity, expressed as Ki, was 18 nM.

Compound `O=C(c1cn(-c2cc(F)cc(F)c2)c2cc(Cl)ccc12)N1CCC(n2c(=O)[nH]c3ccccc32)CC1` [Example 40, 1-{1-[6-Chloro-1-(3,5-difluoro-phenyl)-1H-indole-3-carbonyl]-piperidin-4-yl}-1,3-dihydro-benzoimidazol-2-one] registered a Ki of 13 nM.

For the compound `O=C(c1cn(C(=O)N2CCCCC2)c2cc(Cl)ccc12)N1CCC(n2c(=O)[nH]c3ccccc32)CC1` [Example 41, 1-{1-[6-Chloro-1-(piperidine-1-carbonyl)-1H-indole-3-carbonyl]-piperidin-4-yl}-1,3-dihydro-benzoimidazol-2-one], the Ki is 14 nM.

With `O=C(Cn1cc(C(=O)N2CCC(n3c(=O)n(CC(=O)N4CCCCC4)c4ccccc43)CC2)c2ccc(Cl)cc21)N1CCCCC1` [Example 42, 1-{1-[6-Chloro-1-(2-oxo-2-piperidin-1-yl-ethyl)-1H-indole-3-carbonyl]-piperidin-4-yl}-3-(2-oxo-2-piperidin-1-yl-ethyl)-1,3-dihydro-benzoimidazol-2-one], the Ki came out at 18 nM.

The compound `CCN(CC)C(=O)Cn1cc(C(=O)N2CCC(n3c(=O)n(CC(=O)N(CC)CC)c4ccccc43)CC2)c2ccc(Cl)cc21` [Example 43, 2-{6-Chloro-3-[4-(3-diethylcarbamoylmethyl-2-oxo-2,3-dihydro-benzoimidazol-1-yl)-piperidine-1-carbonyl]-indol-1-yl}-N,N-diethyl-acetamide] showed a Ki of 62 nM.

The compound `O=C(Cn1cc(C(=O)N2CCC(n3c(=O)[nH]c4ccccc43)CC2)c2ccc(Cl)cc21)c1cc(F)cc(F)c1` [Example 44, 1-(1-{6-Chloro-1-[2-(3,5-difluoro-phenyl)-2-oxo-ethyl]-1H-indole-3-carbonyl}-piperidin-4-yl)-1,3-dihydro-benzoimidazol-2-one] yielded a Ki of 17 nM.

As to `Cc1oc(-c2ccccc2)nc1C(=O)Cn1cc(C(=O)N2CCC(n3c(=O)[nH]c4ccccc43)CC2)c2ccc(Cl)cc21` [Example 45, 1-(1-{6-Chloro-1-[2-(5-methyl-2-phenyl-oxazol-4-yl)-2-oxo-ethyl]-1H-indole-3-carbonyl}-piperidin-4-yl)-1,3-dihydro-benzoimidazol-2-one], affinity was put at a Ki of 43 nM.

`CN(C)C(=O)Cn1cc(C(=O)N2CCC(n3c(=O)[nH]c4ccccc43)CC2)c2ccc(Cl)cc21` [Example 46, 2-{6-Chloro-3-[4-(2-oxo-2,3-dihydro-benzoimidazol-1-yl)-piperidine-1-carbonyl]-indol-1-yl}-N,N-dimethyl-acetamide] registered a Ki of 2 nM.

`Cc1cc2c(C(=O)N3CCC(n4c(=O)[nH]c5ccccc54)CC3)cn(CC(=O)N(C)C)c2cc1Cl` [Example 47, 2-{6-Chloro-5-methyl-3-[4-(2-oxo-2,3-dihydro-benzoimidazol-1-yl)-piperidine-1-carbonyl]-indol-1-yl}-N,N-dimethyl-acetamide] gave a Ki of 5 nM.

In turn, `CN(C)C(=O)Cn1cc(C(=O)N2CCC(n3c(=O)[nH]c4ccccc43)CC2)c2cc(Cl)c(Cl)cc21` [Example 48, 2-{5,6-Dichloro-3-[4-(2-oxo-2,3-dihydro-benzoimidazol-1-yl)-piperidine-1-carbonyl]-indol-1-yl}-N,N-dimethyl-acetamide] returned a Ki of 3 nM.
